The results in this text go back to the NIST ThermoML archive (doi:10.1016/j.tca.2012.09.040).

Numbers after ± are expanded uncertainties.

This data set in a line: of the first substance listed, at infinite dilution; xn = mol fraction of the nth substance listed. The following applies: 100 kPa, Liquid, isoperibol.

Regarding `CN(C)C=O` [dimethylformamide] + CCCCCCCCO, the partial molar enthalpy (298.15 K, x1 = 0) was determined as 1.35 ± 0.0263 kcal/mol and the partial molar enthalpy (318.15 K, x1 = 0) came out at 1.22 ± 0.0239 kcal/mol.
For the compound `CCCCCCCCO` [octan-1-ol] + CN(C)C=O, the partial molar enthalpy turned out to be 1.55 ± 0.0311 kcal/mol (298.15 K, x2 = 1) and 1.52 ± 0.0311 kcal/mol (318.15 K, x2 = 1).
